The subject of experiment [1] is DC1 cells. As to the kind of experiment: MSC co-culture with LPS-activated DC1 cells, TNF-α secretion. Type of experiment: cell-based, human. The note with it: MSCs cultured with activated DC1 in presence of PGE2 inhibitor. From the text:
Peripheral blood mononuclear cells (PBMCs) were obtained from Poietics Technologies, Div of Cambrex Biosciences (Walkersville, Md.). Precursors of dendritic cells (DCs) of monocytic lineage (CD1c^+) were positively selected from PBMCs using a 2-step magnetic separation method according to Dzionek, et al., J. Immunol., Vol. 165, pg. 6037 (2000). Briefly, CD1c expressing B cells were magnetically depleted of CD19^+ cells using magnetic beads, followed by labeling the B-cell depleted fraction with biotin-labeled CD1c (BDCA1^+) and anti-biotin antibodies and separating them from the unlabeled cell fraction utilizing magnetic columns according to the manufacturer's instructions (Miltenyi Biotech, Auburn, Calif.). Precursors of DCs of plasmacytoid lineage were isolated from PBMCs by immuno-magnetic sorting of positively labeled antibody coated cells (BDCA2^+) (Miltenyi Biotech, Auburn, Calif.).
In most experiments, human MSCs and DCs were cultured in equal numbers for various time periods and cell culture supernatant collected and stored at −80° C. until further evaluation. […] The non-adherent cell fraction (purified T cells) was then collected from the cultures, washed twice and re-stimulated with PHA for another 24 hours, following which cell culture supernatants were harvested and analyzed for secreted IFN-γ and IL-4 by ELISA. […]

Experiment [2] concerns CD4+ Th cells. As to the kind of experiment: Generation of TH1/TH2 cells in presence or absence of MSCs, IFN-γ and IL-4 by ELISA. Type of experiment: cell-based, human. To be noted: MSCs cultured with TH1 cells in presence of PGE2 inhibitor. The procedure:
Peripheral blood mononuclear cells (PBMCs) were plated at 2×10^6 cells/ml for 45 min. at 37°C. in order to remove monocytes. Non-adherent fraction was incubated in the presence of plate-bound anti-CD3 ([…]) and anti-CD28 (1 μg/ml) antibodies under TH1 (IL-2 (4 ng/ml)+IL-12 (5 ng/ml)+anti-IL-4 (1 μg/ml)) or TH2 (IL-2 (4 ng/ml)+Il-4 (4 ng/ml)+anti-IFN-γ (1 μg/ml)) conditions for 3 days in the presence or absence of MSCs. The cells were washed and then re-stimulated with PHA (2.5 μg/ml) for another 24 or 48 hours, following which levels of IFN-γ and IL-4 were measured in culture supernatants by ELISA (R&D Systems, Minneapolis, Minn.).
(In an ELISA, binding on a coated surface is turned into a signal by an enzyme label.)

The subject of experiment [3] is MSCs. As to the kind of experiment: Secreted factors (PGE2, IL-6, VEGF, pro-MMP-1) in culture supernatant of MSCs. The class given is cell-based. To be noted: Homo sapiens, 24 hour culture, read-out: inhibition of PGE2 secretion by hMSCs. The protocol: Using previously characterized human MSCs, the levels of Interleukin-6 (IL-6), VEGF, lipid mediator prostaglandin E2 (PGE2), and matrix metalloproteinase 1 (pro-MMP-1) were analyzed in culture supernatant of MSCs cultured for 24 hours in the presence or absence of PBMCs (MSC to PBMC ratio 1:10).

On to `CS(=O)(=O)Nc1ccc([N+](=O)[O-])cc1OC1CCCCC1` [NS-398], for which, in experiment [1], the “TNF-α secretion by DC1s” value was “increased TNF-α secretion”. Also, the “IFN-γ secretion from TH1 cells” value in experiment [2] was “increased”. The inhibition at 5 µM in experiment [3] (NS-398 5 μM) lay within 60 to 90%.

Consider `COc1ccc2c(c1)c(CC(=O)O)c(C)n2C(=O)c1ccc(Cl)cc1` [indomethacin], for which the “TNF-α secretion by DC1s” value in experiment [1] was “increased TNF-α secretion”. In experiment [2], the “IFN-γ secretion from TH1 cells” value was “increased”. The inhibition at 4 µM in experiment [3] (indomethacin 4 μM) was 60 to 90%.

What is called inhibition is the percentage by which the read-out fell short of the control.

These data come from patent US10716814B2, “Mesenchymal stem cells and uses therefor” (Mesoblast International Sárl, priority 2004, dated 2020).
